Data: ChEMBL document CHEMBL5500393, “Discovery and Optimization of Novel SaFabI Inhibitors as Specific Therapeutic Agents for MRSA Infection” (J Med Chem, 2024)
Values after ≈ are worked out from the molar mass of the structure shown. Active and inactive are the calls of the source. The calls are words filed in the database; no cut-off is given here.

What was measured:
Staphylococcus aureus [1] = assay: In vivo antibacterial activity against methicilin-resistant Staphylococcus aureus ATCC33591 infected in BALB/c mouse skin infection model assessed as reduction in number of inflammatory cells at 5 mg/kg administered daily for 4 days by H and E staining based analysis; assay type: functional, organism-based; conditions: time 4.0 day
Staphylococcus aureus [2] = assay: Antimicrobial activity against methicillin-susceptible Staphylococcus aureus ATCC29213 measured after 24 hrs by CLSI protocol based microdilution method; assay type: functional
[3] = biological target: T1, Enoyl-[acyl-carrier-protein] reductase [NADPH] FabI (Staphylococcus aureus, UniProt Q6GI75); assay: Inhibition of N-terminal his 6 tagged Staphylococcus aureus Fabi (1 to […] residues) expressed in Escherichia coli BL21 incubated for 30 mins in presence of NADPH by fluorescence based microplate reader analysis
T1 sequence (Q6GI75 whole entry): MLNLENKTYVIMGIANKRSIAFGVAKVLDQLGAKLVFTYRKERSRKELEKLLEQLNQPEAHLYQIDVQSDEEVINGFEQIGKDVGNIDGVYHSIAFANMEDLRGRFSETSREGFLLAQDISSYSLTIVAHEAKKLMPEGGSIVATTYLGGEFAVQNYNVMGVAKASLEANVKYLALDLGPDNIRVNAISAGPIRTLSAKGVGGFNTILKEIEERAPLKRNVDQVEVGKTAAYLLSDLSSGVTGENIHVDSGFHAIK

Staphylococcus aureus [4] = assay: In vivo antibacterial activity against methicilin-resistant Staphylococcus aureus ATCC33591 infected in BALB/c mouse skin infection model assessed as reduction in area of injury at 5 mg/kg administered daily for 4 days by H and E staining based analysis; assay type: functional, organism-based; conditions: time 4.0 day
Staphylococcus aureus [5] = assay: In vivo antibacterial activity against methicilin-resistant Staphylococcus aureus ATCC33591 infected in BALB/c mouse skin infection model assessed as log reduction in bacterial count at 5 mg/kg administered daily for 4 days; assay type: functional; conditions: time 4 day
Staphylococcus aureus [6] = assay: In vivo antibacterial activity against methicilin-resistant Staphylococcus aureus ATCC33591 infected in BALB/c mouse skin infection model assessed as reduction in skin lesions at 5 mg/kg administered daily for 4 days (reference value: 50.1 mm2); assay type: functional; conditions: time 4 day
Staphylococcus aureus [7] = assay: In vivo antibacterial activity against methicilin-resistant Staphylococcus aureus ATCC33591 infected in BALB/c mouse skin infection model assessed as normal morphology at 5 mg/kg administered daily for 4 days by H and E staining based analysis; assay type: functional, organism-based; conditions: time 4.0 day
Staphylococcus aureus [8] = assay: In vivo antibacterial activity against methicilin-resistant Staphylococcus aureus ATCC33591 infected in BALB/c mouse skin infection model assessed as reduction in bacterial load at 5 mg/kg administered daily for 4 days; assay type: functional; conditions: time 4 day
[9] = Clearance in female Sprague-Dawley rat at 5 mg/kg, iv measured upto 24 hrs by LC-MS analysis; assay type: ADME, organism-based; conditions: in vivo
Staphylococcus aureus [10] = assay: Antimicrobial activity against […] Staphylococcus aureus ATCC33591 assessed as frequency of spontaneous resistance at 16 times MIC measured after 48 hrs by; assay type: functional
[11] = Metabolic stability in mouse liver microsomes assessed as intrinsic clearance at 1 uM measured upto 120 mins in presence of NADPH by LC-MS analysis; assay type: ADME, Microsome; conditions: read-out: CLH
Staphylococcus aureus [12] = assay: Antimicrobial activity against […] Staphylococcus aureus ATCC33591 measured after 24 hrs by CLSI protocol based microdilution method; assay type: functional
[13] = Cmax in female Sprague-Dawley rat at 20 mg/kg, po measured upto 24 hrs by LC-MS analysis; assay type: ADME, organism-based; conditions: in vivo
[14] = Metabolic stability in mouse liver microsomes assessed as half life at 1 uM measured upto 120 mins in presence of NADPH by LC-MS analysis; assay type: ADME, Microsome
[15] = Oral bioavailability in female Sprague-Dawley rat at 20 mg/kg measured upto 24 hrs by LC-MS analysis; assay type: ADME, organism-based; conditions: in vivo
Staphylococcus aureus [16] = assay: Antimicrobial activity against […] Staphylococcus aureus NRS271 measured after 24 hrs by CLSI protocol based microdilution method; assay type: functional
[17] = Metabolic stability in human liver microsomes assessed as half life at 1 uM measured upto 120 mins in presence of NADPH by LC-MS analysis; assay type: ADME, Microsome
Staphylococcus aureus [18] = assay: In vivo antibacterial activity against methicilin-resistant Staphylococcus aureus ATCC33591 infected in BALB/c mouse skin infection model assessed as decrease in lesion size at 5 mg/kg administered daily for 4 days (reference value: 43.4 mm2); assay type: functional; conditions: time 4 day
Staphylococcus aureus [19] = assay: Antimicrobial activity against […] Staphylococcus aureus ATCC33591 assessed as frequency of spontaneous resistance at 4 times MIC measured after 48 hrs by; assay type: functional
Staphylococcus aureus [20] = assay: Antimicrobial activity against […] Staphylococcus aureus ATCC33591 assessed as reduction in lipid content measured after 4 hrs by microplate reader based analysis; assay type: functional
[21] = Half life in female Sprague-Dawley rat at 5 mg/kg, iv measured upto 24 hrs by LC-MS analysis; assay type: ADME, organism-based; conditions: in vivo
Enterococcus faecium = assay: Antimicrobial activity against Enterococcus faecium ATCC19434 measured after 24 hrs by CLSI protocol based microdilution method; assay type: functional
Staphylococcus aureus [22] = assay: Antimicrobial activity against Staphylococcus aureus RN4220 harbouring pCM-sfgfp::fabi (promoter-sarA) measured after 24 hrs by CLSI protocol based microdilution method; assay type: functional
Staphylococcus aureus [23] = assay: Antimicrobial activity against […] Staphylococcus aureus USA300 measured after 24 hrs by CLSI protocol based microdilution method; assay type: functional
Staphylococcus aureus [24] = assay: In vivo antibacterial activity against methicilin-resistant Staphylococcus aureus ATCC33591 infected in BALB/c mouse skin infection model assessed as restoration of cell morphology at 5 mg/kg administered daily for 4 days by H and E staining based analysis; assay type: functional, organism-based; conditions: time 4.0 day
[25] = Tmax in female Sprague-Dawley rat at 20 mg/kg, po measured upto 24 hrs by LC-MS analysis; assay type: ADME, organism-based; conditions: in vivo
Enterococcus faecalis = assay: Antimicrobial activity against Enterococcus faecalis ATCC29212 measured after 24 hrs by CLSI protocol based microdilution method; assay type: functional
[26] = Cmax in female Sprague-Dawley rat at 5 mg/kg, iv measured upto 24 hrs by LC-MS analysis; assay type: ADME, organism-based; conditions: in vivo
Staphylococcus aureus [27] = assay: In vivo antibacterial activity against methicilin-resistant Staphylococcus aureus ATCC33591 infected in BALB/c mouse skin infection model assessed as normal skin structure at 5 mg/kg administered daily for 4 days by H and E staining based analysis; assay type: functional, organism-based; conditions: time 4.0 day
[28] = AUC (0 to t) in female Sprague-Dawley rat at 20 mg/kg, po measured upto 24 hrs by LC-MS analysis; assay type: ADME, organism-based; conditions: in vivo
Staphylococcus aureus [29] = assay: Antimicrobial activity against wild type Staphylococcus aureus RN4220 measured after 24 hrs by CLSI protocol based microdilution method; assay type: functional
[30] = Clearance in female Sprague-Dawley rat at 20 mg/kg, po measured upto 24 hrs by LC-MS analysis; assay type: ADME, organism-based; conditions: in vivo
[31] = Half life in female Sprague-Dawley rat at 20 mg/kg, po measured upto 24 hrs by LC-MS analysis; assay type: ADME, organism-based; conditions: in vivo
Pseudomonas aeruginosa = assay: Antimicrobial activity against Pseudomonas aeruginosa PAO1 measured after 24 hrs by CLSI protocol based microdilution method; assay type: functional
[32] = Metabolic stability in human liver microsomes assessed as intrinsic clearance at 1 uM measured upto 120 mins in presence of NADPH by LC-MS analysis; assay type: ADME, Microsome; conditions: read-out: CLH
Acinetobacter baumannii = assay: Antimicrobial activity against Acinetobacter baumannii ATCC19606 measured after 24 hrs by CLSI protocol based microdilution method; assay type: functional
Escherichia coli = assay: Antimicrobial activity against Escherichia coli ATCC25922 measured after 24 hrs by CLSI protocol based microdilution method; assay type: functional
Staphylococcus aureus [33] = assay: Antimicrobial activity against […] Staphylococcus aureus ATCC43300 measured after 24 hrs by CLSI protocol based microdilution method; assay type: functional
Staphylococcus aureus [34] = assay: Antimicrobial activity against methicillin-susceptible Staphylococcus aureus ATCC25923 measured after 24 hrs by CLSI protocol based microdilution method; assay type: functional
Staphylococcus aureus [35] = assay: Antimicrobial activity against Staphylococcus aureus RN4220 harbouring pCM-sfgfp measured after 24 hrs by CLSI protocol based microdilution method; assay type: functional
Staphylococcus aureus [36] = assay: Bactericidal activity against […] Staphylococcus aureus ATCC33591 assessed as log reduction in bacterial count measured within 24 hrs by time-kill assay; assay type: functional
Candida albicans = assay: Antimicrobial activity against Candida albicans SC5314 measured after 48 hrs by CLSI protocol based microdilution method; assay type: functional
[37] = AUC (0 to t) in female Sprague-Dawley rat at 5 mg/kg, iv measured upto 24 hrs by LC-MS analysis; assay type: ADME, organism-based; conditions: in vivo
Staphylococcus aureus [38] = assay: Antimicrobial activity against Staphylococcus aureus RN4220 harbouring pCM-sfgfp::fabi (promoter fabi) measured after 24 hrs by CLSI protocol based microdilution method; assay type: functional
Staphylococcus aureus [39] = assay: Antimicrobial activity against […] Staphylococcus aureus ATCC33591 assessed as frequency of spontaneous resistance at 8 times MIC measured after 48 hrs by; assay type: functional

With `Cc1c(CN(C)C(=O)/C=C/c2cnc3c(c2)CCC(=O)N3)oc2ccccc12` [AFN-1252] the Activity (Staphylococcus aureus [1]) was “Active”, the MIC (Staphylococcus aureus [2]) was 0.008 µg/mL (≈ 0.0213 µM) and the IC50 [3] was 42.3 nM. The Activity (Staphylococcus aureus [4]) was “Active”, the “log(activity)” value (Staphylococcus aureus [5]) was 7.8 and the Activity (Staphylococcus aureus [6]) was 13.7 mm2. The Activity (Staphylococcus aureus [7]) was “Active”, the “log(activity)” value (Staphylococcus aureus [8]) was -7.1 and the clearance [9] was 30 mL/min/kg. The Activity (Staphylococcus aureus [10]) was <2.6 10^-10No_unit, the CLint scaled at 1 µM [11] was 319 mL/min/kg and the MIC (Staphylococcus aureus [12]) was 0.008 µg/mL (≈ 0.0213 µM). The Cmax [13] was 711 ng/mL, the half-life at 1 µM [14] was 17.1 min and the bioavailability [15] was 40.7%. The MIC (Staphylococcus aureus [16]) was 0.016 µg/mL (≈ 0.0426 µM), the half-life at 1 µM [17] was 34.5 min and the Activity (Staphylococcus aureus [18]) was 10.4 mm2. The Activity (Staphylococcus aureus [19]) was 1.6 10^-9No_unit, the MIC (Staphylococcus aureus [20]) was 0.008 µg/mL (≈ 0.0213 µM) and the t1/2 [21] was 402 min. For the same compound, the MIC (Enterococcus faecium) was > 32 µg/mL, the MIC (Staphylococcus aureus [22]) was 1 µg/mL (≈ 2.66 µM) and the MIC (Staphylococcus aureus [23]) was 0.016 µg/mL (≈ 0.0426 µM). The Activity (Staphylococcus aureus [24]) was “Active”, the Tmax [25] was 60 min and the MIC (Enterococcus faecalis) was > 32 µg/mL. For the same compound, the Cmax [26] was 1810 ng/mL, the Activity (Staphylococcus aureus [27]) was “Active” and the AUCt [28] was 4414.1 ng·h/mL. For the same compound, the MIC (Staphylococcus aureus [29]) was 0.016 µg/mL (≈ 0.0426 µM), the CL/F [30] was 71.7 mL/min/kg and the t1/2 [31] was 432 min. For the same compound, the MIC (Pseudomonas aeruginosa) was > 32 µg/mL, the CLint scaled at 1 µM [32] was 50.4 mL/min/kg and the MIC (Acinetobacter baumannii) was > 32 µg/mL. The MIC (Escherichia coli) was > 32 µg/mL, the MIC (Staphylococcus aureus [33]) was 0.016 µg/mL (≈ 0.0426 µM) and the MIC (Staphylococcus aureus [34]) was 0.008 µg/mL (≈ 0.0213 µM). For the same compound, the MIC (Staphylococcus aureus [35]) was 0.016 µg/mL (≈ 0.0426 µM), the “log(activity)” value (Staphylococcus aureus [36]) was 5 and the MIC (Candida albicans) was > 32 µg/mL. The AUCt [37] was 2713.1 ng·h/mL, the MIC (Staphylococcus aureus [38]) was 0.25 µg/mL (≈ 0.666 µM) and the Activity (Staphylococcus aureus [39]) was 5.9 10^-10No_unit.
